Measurements: patent publication US5234922A, “Use of sulfonylureas and other potassium channel regulators to treat secretory diarrhea” (University of Iowa Research Foundation, priority 1992, dated 1993)
Structures can show the parent of a compound that is named as a salt. Where two headings read alike, the source gives them in different places.

Target: T1, wild-type human CFTR (Homo sapiens, UniProt P13569)
T1 construct: expressed in transfected cells; host or cells: NIH 3T3 fibroblasts (stably infected with a retrovirus)
T1 sequence (P13569 whole entry): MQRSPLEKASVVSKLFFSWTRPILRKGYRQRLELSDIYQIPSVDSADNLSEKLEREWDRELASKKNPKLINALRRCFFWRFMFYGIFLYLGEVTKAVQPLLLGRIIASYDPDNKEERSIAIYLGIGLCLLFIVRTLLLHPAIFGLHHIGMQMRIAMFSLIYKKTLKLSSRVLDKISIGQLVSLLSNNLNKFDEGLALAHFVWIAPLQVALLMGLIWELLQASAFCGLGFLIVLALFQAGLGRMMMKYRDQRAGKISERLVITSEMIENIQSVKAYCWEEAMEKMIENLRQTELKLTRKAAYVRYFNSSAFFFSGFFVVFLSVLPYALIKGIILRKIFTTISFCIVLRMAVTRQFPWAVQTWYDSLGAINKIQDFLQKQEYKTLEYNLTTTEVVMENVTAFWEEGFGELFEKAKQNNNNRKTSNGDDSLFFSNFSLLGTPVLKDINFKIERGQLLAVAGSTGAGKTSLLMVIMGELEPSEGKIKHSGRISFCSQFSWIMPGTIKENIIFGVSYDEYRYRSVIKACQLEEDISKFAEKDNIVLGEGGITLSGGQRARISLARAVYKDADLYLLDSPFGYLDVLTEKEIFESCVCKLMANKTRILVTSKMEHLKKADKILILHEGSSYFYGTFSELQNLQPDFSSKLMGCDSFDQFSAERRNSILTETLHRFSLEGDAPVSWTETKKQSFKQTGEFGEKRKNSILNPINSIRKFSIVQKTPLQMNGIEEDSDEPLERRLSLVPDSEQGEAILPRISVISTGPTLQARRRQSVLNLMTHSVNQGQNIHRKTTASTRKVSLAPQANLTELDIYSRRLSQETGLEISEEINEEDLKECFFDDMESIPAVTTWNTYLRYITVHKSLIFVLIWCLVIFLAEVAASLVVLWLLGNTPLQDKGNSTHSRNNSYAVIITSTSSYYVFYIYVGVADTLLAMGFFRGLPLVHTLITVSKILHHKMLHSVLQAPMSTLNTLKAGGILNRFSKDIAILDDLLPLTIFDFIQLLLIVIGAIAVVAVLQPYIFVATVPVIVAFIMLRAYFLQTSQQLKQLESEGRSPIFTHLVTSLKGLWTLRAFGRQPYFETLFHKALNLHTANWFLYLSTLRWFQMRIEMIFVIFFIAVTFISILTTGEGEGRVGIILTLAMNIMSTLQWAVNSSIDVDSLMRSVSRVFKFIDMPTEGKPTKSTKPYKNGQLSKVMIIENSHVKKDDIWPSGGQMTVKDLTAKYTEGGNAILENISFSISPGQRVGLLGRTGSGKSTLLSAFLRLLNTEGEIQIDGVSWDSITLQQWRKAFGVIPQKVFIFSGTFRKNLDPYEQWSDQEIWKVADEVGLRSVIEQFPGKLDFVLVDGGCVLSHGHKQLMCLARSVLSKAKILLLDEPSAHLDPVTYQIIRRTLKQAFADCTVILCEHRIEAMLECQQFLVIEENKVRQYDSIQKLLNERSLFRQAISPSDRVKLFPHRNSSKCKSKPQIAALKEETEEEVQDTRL
Assay: Whole-cell patch-clamp recording of cAMP-activated CFTR Cl- currents in NIH 3T3 fibroblasts expressing recombinant CFTR
Format: cell-based
Settings: for effect on baseline currents: before cAMP stimulation, n=3; for effect on Cl- current previously activated by cAMP agonists: added to the bathing solution after activation; for relative potency of inhibition of CFTR Cl- currents: rank order among K+ channel openers; for inhibition at 1000 µM: 1 mM

[1] = NIH3T3, 250 μM, 3 min after adding, currents activated by cAMP agonists
[2] = NIH3T3, 3 min after adding, currents activated by cAMP agonists

Structure (SMILES) | inhibition at 250 µM [1] | effect on Cl- current previously activated by cAMP agonists | relative potency of inhibition of CFTR Cl- currents | inhibition at 1000 µM [2] | also measured
CC1(C)Oc2ccc(C#N)cc2[C@@H](N2CCCC2=O)[C@@H]1O [lemakalim] | > 70% | inhibited | more potent than diazoxide |  | effect on baseline currents (250 μM): no effect
COc1ccc(Cl)cc1C(=O)NCCc1ccc(S(=O)(=O)NC(=O)NC2CCCCC2)cc1 [glibenclamide] |  |  |  |  | inhibition at 100 µM (NIH3T3, read-out: inhibition of CFTR Cl- currents): > 90%; reversibility of inhibition of CFTR Cl- currents on washing (prolonged washing): irreversible
CCCCNC(=O)NS(=O)(=O)c1ccc(C)cc1 [tolbutamide] |  |  |  | > 90% | voltage dependence of inhibition of CFTR Cl- currents (500 μM): little voltage dependence; effect on CFTR Cl- currents (500 μM, currents activated by cAMP agonists): inhibited; reversibility of inhibition of CFTR Cl- currents on washing (washes lasting >10 min): partially recovered
Nc1cc(N2CCCCC2)nc(N)[n+]1OS(=O)(=O)[O-] [minoxidil sulfate] |  | inhibited | more potent than lemakalim |  | effect on baseline currents (10-500 μM): no effect; inhibition at 100 µM (NIH3T3, 100 μM, 3 min after adding, currents activated by cAMP agonists, read-out: inhibition of CFTR Cl- currents): > 70%
CC1=NS(=O)(=O)c2cc(Cl)ccc2N1 [diazoxide] | > 70% | inhibited |  | > 70% | effect on baseline currents (100-1,000 μM): no effect
